The values below are quoted from earlier work in patent publication EP0228223A2, “Non-irritating suprofen solution” (Cilag AG, priority 1985, dated 1987).

Entries after “also recorded” stand apart in the source; their conditions may differ.

The conditions of series [1]: preparation swallowed; appears only seconds after swallowing, disappears within minutes.

`CC(C(=O)O)c1ccc(C(=O)c2cccs2)cc1` (stereo not shown) [Suprofen, p-(2-thenoyl)hydratropic acid]: in series [1], the “irritation in the throat” value is “very characteristic irritation”. For the same compound, the “solubility in organic solvents and base” value (methanol, ethanol, chloroform, acetone, polyethylene glycol and 1.0 N sodium hydroxide) is listed as “freely soluble”. The solubility in water result (water) is “poorly soluble; also recorded: very slightly soluble”.
With `CC(C(=O)O)c1ccc(C(=O)c2cccs2)cc1` (stereo not shown) [suprofen-sodium], in series [1], the “irritation in the throat” value was “irritation effect occurs”.
